{"source": "patent US11154546B2", "about": "“Methods and compositions for treatment of mitochondrial toxicity” (Epirium Bio Inc., priority 2011, dated 2021)", "key": {"isolated mitochondria": {"tested_on": "isolated mitochondria", "test": "calcium induced mitochondrial damage (swelling, OD at 535 nm) in isolated heart mitochondria", "format": "biochemical, rat", "settings": "10^−14-10^−12 M; 33 μM CaCl2", "method": "FIG. 6 depicts the protective effect of epicatechin on calcium induced mitochondrial damage (as measured by mitochondrial swelling). Swelling was evaluated by monitoring changes in optical density (OD, light absorbance) as follows: Hearts from male rats were excised and weighed. Left ventricles were homogenized (0.1 g/mL) in solution A (Sucrose 2M, EDTA 0.01M, Hepes 0.5M: pH=7.4), centrifuged 10 min (800×g), 4° C., the supernatant was centrifuged 10 min (8000×g), 4° C. and the pellet was re-suspended in solution B (Sucrose 2M, EDTA 0.01M, Tris 0.5M-H2PO4-50 mM: pH=7.4) and centrifuged 10 min (10000×g), 4° C. […] Pellet was re-suspended in 10 mL of solution C (Sucrose 2M, EDTA 0.01M, Tris 0.5M, H2PO4 50 mM, Succinate 1M: pH=7.4)."}, "[1]": {"tested_on": "mitochondrial permeability transition pores", "settings": "cited from earlier work"}, "[2]": {"tested_on": "differentiated human skeletal muscle cells", "test": "mitochondrial respiration (oxygen consumption rate, Seahorse apparatus) in differentiated human skeletal muscle cells", "format": "cell-based", "settings": "cells treated with 30 nM epicatechin for 48 h", "method": "FIG. 1 depicts epicatechin stimulation on-demand mitochondrial respiration in human cells. […] Rates of respiration are reported as oxygen consumption rates (OCR) and were measured using a Seahorse apparatus.\nFIG. 2 depicts blockade of epicatechin's stimulatory effect by an inhibitor of pyruvate transport."}, "[3]": {"tested_on": "mitochondrial oxidative phosphorylation (OXPHOS) related complexes", "test": "Western blot of OXPHOS complexes in skeletal muscle of prednisolone-treated rats", "format": "in vivo", "settings": "prednisolone 10 mg/kg/day SC, 10 days, rat quadriceps", "method": "FIG. 3 depicts the effects of the administration of 10 consecutive days of prednisolone (10 mg/kg/day, SC) on rat skeletal muscle mitochondrial oxidative phosphorylation (OXPHOS) related complexes levels as assessed by Western blots. Three groups of male rats were analyzed: 1) control group (saline solution, SC and saline solution by gavage BID); 2) prednisolone (10 mg/kg/day, SC and saline solution by gavage BID); and 3) prednisolone (10 mg/kg/day, SC) plus epicatechin (Epi; 1 mg/kg/day by gavage BID). Western blots of isolated skeletal muscle (quadriceps) from each group were probed with a cocktail of monoclonal antibodies to electron transport chain proteins (OXPHOS) (20 KDa subunit of complex I, 26 KDa subunit of complex IV, subunit core 2 of complex III, 30 KDa complex II and ATP synthase 54 Kda complex V). […]\nWestern blots were performed as follows: Approximately 50 mg of the heart and quadriceps femoris muscles were homogenized with a polytron in 500 μl lysis buffer (1% triton X-100, 20 mM Tris, 140 mM NaCl, 2 mM EDTA, and 0.1% SDS) with protease and phosphatase inhibitor cocktails (P2714 and P2850, Sigma-Aldrich, St. Louis, Mo.) supplemented with 0.15 mM PMSF, 5 mM Na3VO4 and 3 mM NaF. […] The total protein content was measured in the supernatant using the Bradford method. […] The band intensities were digitally quantified using ImageJ software."}, "[4]": {"test": "fasting glucose levels in prednisolone-treated rats", "format": "in vivo, rat", "settings": "prednisolone 10 mg/kg/day SC, 10 days", "quoted_text": "Three groups of male rats were analyzed: 1) control group (saline solution, SC and saline solution by gavage BID); 2) prednisolone (10 mg/kg/day, SC and saline solution by gavage BID) and; 3) prednisolone (10 mg/kg/day, SC) plus epicatechin (Epi; 1 mg/kg/day by gavage BID). Blood samples were obtained from animals on each group after 12 hours fasting, Glucose levels were determined spectrophotometrically with an autokit glucose (Wako) kit."}, "[5]": {"test": "oral glucose tolerance test in prednisolone-treated rats", "format": "in vivo, rat", "settings": "prednisolone 10 mg/kg/day SC, 10 days; oral glucose 1.25 g/Kg, 0-4 hours", "quoted_text": "Blood samples were obtained from animals on each group from 0-4 hours after an oral glucose charge (1.25 g/Kg). Glucose levels were determined spectrophotometrically with an autokit glucose (Wako) kit."}}, "data": [{"smiles": "O=C(NCCO[N+](=O)[O-])c1cccnc1", "note": "[Nicorandil, N-[2-(Nitroxy)ethyl]-3-pyridinecarboxamide]", "values": [{"measurement": "calcium induced mitochondrial swelling", "setting": "isolated mitochondria", "value": "blocks in a dose dependent manner"}, {"measurement": "mitochondrial pore formation in response to ischemia", "setting": "[1]", "value": "prevent mitochondrial pore formation"}]}, {"smiles": "N#CC(=Cc1ccccc1)C(=O)O", "note": "[a-cyannocinnamate]", "values": [{"measurement": "blockade of epicatechin-stimulated maximal rates of respiration", "setting": "[2]", "value": "blocked"}]}, {"smiles": "OCC1OC(O)CC(O)C1O", "note": "(stereo not shown) [deoxyglucose]", "values": [{"measurement": "blockade of epicatechin-stimulated maximal rates of respiration", "setting": "[2]", "value": "not by deoxyglucose"}]}, {"smiles": "C[C@]12C=CC(=O)C=C1CC[C@@H]1[C@@H]2[C@@H](O)C[C@@]2(C)[C@H]1CC[C@]2(O)C(=O)CO", "note": "[prednisolone]", "values": [{"measurement": "skeletal muscle mitochondrial complex (I-V) levels", "setting": "[3]", "value": "reduced"}, {"measurement": "glucose levels after 12 hours fasting", "setting": "[4]", "value": "significant hyperglycemia"}, {"measurement": "oral glucose tolerance", "setting": "[5]", "value": "Abnormal glucose tolerance"}]}]}
